Values of other authors, collected in US11318114B2, “Water dispersible mini-tablets comprising Enalapril for treatment of hypertension in a pediatric population and method of preparation thereof” (PHARMATHEN S.A., priority 2014, dated 2022).
≈ marks a conversion by molar mass, not a printed value. Structures can show the parent of a compound that is named as a salt. Where two headings read alike, the source gives them in different places.

Structure (SMILES): CCOC(=O)[C@H](CCc1ccccc1)N[C@@H](C)C(=O)N1CCC[C@H]1C(=O)O [Enalapril maleate]
- Solubility (alcohol): soluble
- Solubility (dimethylformamide): freely soluble
- Solubility (methanol): freely soluble
- Solubility (nonpolar organic solvents): practically insoluble
- Solubility (semi polar organic solvents): slightly soluble
- Solubility (water): sparingly soluble

Structure (SMILES): CCOC(=O)[C@H](CCc1ccccc1)N[C@@H](C)C(=O)N1CCC[C@H]1C(=O)O [Enalapril, (2S)-1-{[92S0-1-ethoxy-1-oxo-4phenylbutan-2-yl]amino}pyrrolidine-2carboxylic acid]
- Solubility in water (water): 25 mg/mL (≈ 66.4 mM)
